{"source": "ChEMBL document CHEMBL1811761", "about": "“Recent advances in drug discovery of benzothiadiazine and related analogs as HCV NS5B polymerase inhibitors” (Bioorg Med Chem, 2011)", "key": {"Hepatitis C virus": {"test_system": "Hepatitis C virus", "assay": "Antiviral activity against HCV 1b N infected in human HuH7 cells assessed as inhibition of viral RNA replication after 3 days by RT-PCR analysis", "assay_type": "functional, organism-based, Hepacivirus hominis", "conditions": "genotype 1b strain N, Huh-7, 72 h"}, "Huh-7": {"test_system": "Huh-7", "assay": "Cytotoxicity against human HuH7 cells up to […]", "assay_type": "cell-based"}}, "data": [{"smiles": "O=c1c(C2=NS(=O)(=O)c3ccccc3N2)c(O)c2ccccc2n1NC1CC1", "values": [{"measurement": "EC50", "setting": "Hepatitis C virus", "result": 100, "unit": "nM"}]}, {"smiles": "O=c1c(C2=NS(=O)(=O)c3ccccc3N2)c(O)c2ccccc2n1NC1CCC1", "values": [{"measurement": "EC50", "setting": "Hepatitis C virus", "result": 100, "unit": "nM"}]}, {"smiles": "NC(=O)COc1ccc2c(c1)S(=O)(=O)N=C(c1c(O)c3ccccc3n(NC3CCC3)c1=O)N2", "values": [{"measurement": "EC50", "setting": "Hepatitis C virus", "result": 70, "unit": "nM"}, {"measurement": "Activity", "setting": "Huh-7", "result": "Non-toxic"}]}]}
